“Also recorded” adds a separate entry of the source.
Assays:
[1] = tested on: dopaminergic neurons (DAN) differentiated from human iPS cells; experiment: Quantification of tyrosine hydroxylase (TH) positive cells (DAN); assay type: cell-based; settings: 1, 5 or 10 μM
Method: (1) When neural differentiation of human iPS cells into dopaminergic nerve cells was performed, KU-60019 was added to the neural differentiation medium at 1, 5 or 10 μM, followed by culture for 10 days, and the cells expressing Nestin, which is a marker of undifferentiated nervous system, were quantified to evaluate the differentiation efficiency (the culture conditions are shown in FIG. 3). […] (2) In order to compare the amounts of dopaminergic neurons (DAN) differentiated by the same method as in (1), the quantification of tyrosine hydroxylase (TH) positive cells, which is a specific marker of mature DAN, was performed (FIG. 6).

[2] = tested on: human fibroblasts derived from a young donor; experiment: Aging-specific marker SA-Gal in human fibroblasts; assay type: cell-based
[3] = tested on: SHSY5 cells; experiment: Cell aging of SHSY5 cells (nuclear membrane staining, qPCR); assay type: cell-based, human
Text: A decrease in Lamin B1 (LMNB1) mRNA (FIG. 12B), an increase in aging marker p16 mRNA (FIG. 12C) and a […] in aging marker p21 mRNA were detected by qPCR (mean±SEM, n=4, *p<0.01.) (FIG. 12D). That is, also in SHSY5 (immortalized cell line of human nervous system), a breakdown of the nuclear membrane was observed by the addition of KU60019.

[4] = tested on: PARK4-iPS cell-derived DAN; experiment: Cell loss of PARK4-iPS cell-derived DAN (TH antibody); assay type: cell-based, human
Text: Since KU-60019 accelerates neural differentiation from human iPS cells and cell aging, it was verified whether the culture period required for phenotypic detection in DAN differentiated from Parkinson's disease-iPS cells could be shortened by the addition of KU-60019 to a conventional culture method. The culture periods required until phenotypic detection in the case of addition of KU-60019 and in the case of non-addition of KU-60019 were compared using iPS cells established from a patient with typical PARK 4 (α-synuclein duplication), which develops at a relatively old age (50s and beyond) among hereditary Parkinson's diseases. (1) After performing the differentiation induction of PARK4-iPS cell-derived DAN using the same method as in Example 2(2), the cell loss of DAN was analyzed on days 7 and 10 using a TH antibody.

[5] = tested on: iPS cell-derived nerve cells (DAN); experiment: Intracellular NAD+ concentration by colorimetric method; assay type: cell-based, human; settings: cells recovered after 10 days
Method: (3) The differentiation induction of DAN was performed using the same method as in (2), the cells were recovered after 10 days, and the intracellular NAD^+ concentration was measured using a colorimetric method (FIG. 7).

[6] = tested on: DAN from human iPS cells; experiment: Lamin B1 immunostaining of iPS cell-derived DAN; assay type: cell-based; settings: day 7
Method: (1) The differentiation induction of DAN from human iPS cells was performed using the same method as in Example 2(2), and immunostaining using a Lamin B1 antibody was performed on day 7 (FIGS. 8-A-C).

[7] = tested on: nerve cells induced from human iPS cells; experiment: GFP-Synapsin fluorescent reporter screening for nerve cell maturation; assay type: cell-based; settings: for acceleration of cell maturation: human iPS cell-derived neurons, same manner as in Example 1
Method: (1) A nerve cell cluster (Neurosphere) containing neural stem cells was prepared in suspension culture from iPS cells, passaged six times, and differentiated into nerves. A mature nerve cell-specific fluorescent reporter (GFP-Synapsin) was introduced using a lentiviral vector. Thereafter, the culture was switched to adherent culture, and 10 μM each of the low-molecular compound library (Sigma Aldrich) was added to the culture medium for neural differentiation, and the culture was performed for 17 days. The fluorescence intensity of GFP-Synapsin was quantified using an imaging cytometer (In cell analyzer). Using an astrocyte conditioned medium (ACM), which accelerates neural differentiation, as a control, compounds showing a fluorescence intensity closer to the control were selected (FIG. 1 and FIG. 2).

[8] = tested on: human fibroblasts derived from a young donor; experiment: Aging-specific nuclear membrane abnormalities in human fibroblasts (Lamin B1, Lamin A/C); assay type: cell-based
Text: The proportion of cells showing normal nuclear membrane structure in fibroblasts derived from a young donor was reduced by the action of KU60019 (mean±SEM, n=6, *p<0.01.) (FIG. 10B). In fibroblasts collected from an old donor, when compared with human fibroblasts collected from a young donor, a decrease in Lamin B1, which is a nuclear membrane marker, as an aging-specific nuclear membrane abnormality is observed.

[9] = tested on: DAN from human iPS cells; experiment: γH2AX (Ser139) immunostaining of iPS cell-derived DAN; assay type: cell-based; settings: day 7
Method: (2) The differentiation induction of DAN from human iPS cells was performed using the same method as in Example 2(2), and immunostaining using a γH2AX (Ser139) antibody was performed on day 7 (FIGD. 8-D-F).

[10] = tested on: human iPS cells differentiated into dopaminergic nerve cells; experiment: Quantification of Nestin-positive cells during dopaminergic neural differentiation; assay type: cell-based; settings: 1, 5 or 10 μM, culture for 10 days
Method: (1) When neural differentiation of human iPS cells into dopaminergic nerve cells was performed, KU-60019 was added to the neural differentiation medium at 1, 5 or 10 μM, followed by culture for 10 days, and the cells expressing Nestin, which is a marker of undifferentiated nervous system, were quantified to evaluate the differentiation efficiency (the culture conditions are shown in FIG. 3).

Q: With `C[C@@H]1CN(CC(=O)Nc2ccc3c(c2)Cc2cccc(-c4cc(=O)cc(N5CCOCC5)o4)c2S3)C[C@H](C)O1` [KU-60019] as the compound, how does the “TH positive cells (DAN)” value ([1]; culture continued to day 10) read?
A: this difference disappeared

Q: And the “TH positive cells (DAN)” value ([1]; day 7 of culture)?
A: increased depending on the concentration

Q: What about the SA-Gal positive cells [2] of the same compound?
A: increased to a level equivalent to that in fibroblasts derived from an old donor

Q: And the SA-Gal intensity ([2]; n=6, p<0.01)?
A: increased similarly

Q: And the “aging-specific nuclear membrane abnormalities” value ([3]; SHSY5 cells, Lamin B1 / Lamin A/C staining)?
A: aging-specific nuclear membrane abnormalities were caused

Q: What about the “Lamin B1 (LMNB1) mRNA” value ([3]; qPCR, n=4, p<0.01) of the same compound?
A: decrease

Q: And the “aging marker p16 mRNA” value ([3]; qPCR, n=4, p<0.01)?
A: increase; also recorded: significantly elevated

Q: And the “cell loss of DAN compared to normal control cells” value ([4]; day 7 of culture)?
A: no significant increase in cell loss

Q: And the “cell loss of DAN compared to normal control cells” value ([4]; day 10 of culture)?
A: lost cells significantly increased

Q: And the “culture time until Parkinson's disease phenotype is detected” value ([4]; nerve cells derived from iPS cells of a Parkinson's disease patient)?
A: 7 days

Q: What about the “intracellular NAD+ concentration” value [5] of the same compound?
A: decreased depending on the concentration

Q: And the “structure of Lamin B1 (nuclear membrane)” value [6]?
A: degraded

Q: What about the “fluorescence intensity of GFP-Synapsin” value ([7]; 10 μM, 17 days culture, compound library screening) of the same compound?
A: highest fluorescence intensity among the compounds selected

Q: What about the “acceleration of cell maturation” value [7] of the same compound?
A: acceleration of cell maturation was observed

Q: What about the “aging-specific nuclear membrane abnormality (Lamin B1)” value ([8]; fibroblasts derived from a young donor) of the same compound?
A: reduction of Lamin B1

Q: What about the “proportion of cells showing normal nuclear membrane structure” value ([8]; fibroblasts derived from a young donor, n=6, p<0.01) of the same compound?
A: reduced

Q: And the “Lamin B1 (nuclear membrane marker)” value ([8]; young donor-derived fibroblasts, added for 72 hours)?
A: a decrease in Lamin B1 was found

Q: And the “γH2AX accumulation (DNA damage)” value [9]?
A: accumulated in the nucleus

Q: What about the “amount of Nestin-positive cells” value [10] of the same compound?
A: decreased depending on the concentration

Q: How did the “acceleration of cell maturation” value [7] turn out when `O=c1cc(-c2cccc3c2Sc2ccccc2S3)oc(N2CCOCC2)c1` [KU55933] was run?
A: only in the cells to which KU60019 was added

Q: How did the “acceleration of cell maturation” value [7] turn out when `O=c1cc(N2CCOCC2)oc2c(-c3cccc4c3sc3ccccc34)cccc12` [NU7441] was run?
A: only in the cells to which KU60019 was added

Source: patent US12258578B2, “Agent for accelerating maturation or aging of cells” (JUNTENDO EDUCATIONAL FOUNDATION, priority 2019, dated 2025)
